{"source": "patent US20010014685A1", "about": "“Injectable pharmaceutical composition for treatment and reversal of erectile dysfunction” (USA DOCTORS PRODUCTS, INC., priority 1998, published 2001)", "origin": "cited, not measured here", "tested_on": "erectile dysfunction", "conditions": "injectable products including only prostaglandin-E1 / existing preparations", "data": [{"smiles": "CCCCC[C@H](O)/C=C/[C@H]1[C@H](O)CC(=O)[C@@H]1CCCCCCC(=O)O", "note": "[prostaglandin-E1]", "values": [{"measurement": "efficacy for treatment of erectile dysfunction", "result": "≤ 50", "unit": "%"}]}]}
